We go through 20 compounds from ChEMBL document CHEMBL4842358, “Design, synthesis and biological evaluation of sphingosine-1-phosphate receptor 2 antagonists as potent 5-FU-resistance reversal agents for the treatment of colorectal cancer” (Eur J Med Chem, 2021).

Activity calls are given as the source filed them. No cut-off for these calls is given here. Bounds are passed on as bounds.

Assay [1] in a line: Reversal of 5-FU resistance against human SW620/5-FU cells assessed as inhibition of cell proliferation measured after 72 hrs in presence of 5-FU by MTT assay. The format is functional, cell-based. (In general: Formazan colour is commonly taken as a measure of viable cells.)
The next assay concerns HCT-116. The experiment in a line: Reversal of 5-FU resistance against human HCT-116 cells overexpressing DPD assessed as inhibition of cell proliferation measured after 72 hrs in presence of 5-FU by MTT assay. The assay is classed as functional, cell-based. The note with it: HCT-116, 72 h.
The next assay concerns NCM460. As to the kind of experiment: Cytotoxicity against human NCM460 cells assessed as cell viability measured after 72 hrs in presence of 5-FU by MTT assay. The format is cell-based. The note with it: NCM460, 72 h.
Assay [2] has as its target T1, Sphingosine 1-phosphate receptor 2 (Homo sapiens, UniProt O95136). The experiment in a line: Binding affinity to S1PR2 (unknown origin) assessed as association constant measured for 60 secs by surface plasmon resonance assay. The note with it: filed as antagonist, time 60.0 sec. (In SPR one partner is held on a chip, and binding of the other changes the refractive index at the surface.)

Assay [3] deals with T1, Sphingosine 1-phosphate receptor 2. As to the kind of experiment: Binding affinity to S1PR2 (unknown origin) assessed as dissociation constant measured for 60 secs by surface plasmon resonance assay.
Assay [4] shares this target. The experiment in a line: Binding affinity to S1PR2 (unknown origin) measured by surface plasmon resonance assay. The note with it: filed as antagonist.
Assay [5] has the same target. As to the kind of experiment: Antagonist activity at S1PR2 in human SW620/5-FU cells assessed as downregulation of DPD expression by western blot analysis. The assay is classed as functional, cell-based. Particulars: filed as antagonist. A general note: A western blot detects proteins with antibodies after separation by electrophoresis.

T1 sequence (O95136 whole entry): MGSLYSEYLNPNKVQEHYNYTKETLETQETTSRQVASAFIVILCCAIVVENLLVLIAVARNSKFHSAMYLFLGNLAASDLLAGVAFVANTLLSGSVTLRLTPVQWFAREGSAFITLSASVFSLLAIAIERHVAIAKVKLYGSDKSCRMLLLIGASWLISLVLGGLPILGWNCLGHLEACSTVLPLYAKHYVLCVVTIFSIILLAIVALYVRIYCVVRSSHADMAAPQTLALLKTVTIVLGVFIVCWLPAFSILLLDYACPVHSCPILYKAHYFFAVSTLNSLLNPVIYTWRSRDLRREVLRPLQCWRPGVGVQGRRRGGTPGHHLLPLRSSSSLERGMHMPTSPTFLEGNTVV

The term EC50 denotes the concentration at which the effect is half-maximal. For `O=c1[nH]cc(F)c(=O)[nH]1` [FLUOROURACIL], the EC50 is over 1000 µM in assay [1], over 1000 µM with HCT-116 and 43.3 µM with NCM460.

As for `O=C(Nc1cc(Cl)nc(Cl)c1)Nc1cc2ccc(-c3ccccc3)cn2n1`, the Ka in assay [2] was 4.59 10^6/M/s. In assay [3], the “Dissociation rate constant (koff)” value is given as 2.01 10^-1/s. Moreover, the K in assay [4] was 4.38 10^-8M. For the same compound, the EC50 in assay [1] came to 9.25 µM; with HCT-116 it was 5.13 µM; in the assay on NCM460, 8.05 µM. The inhibition result in assay [5] was “Active”.

`CN1CCN(C(=O)Nc2cc(Cl)nc(Cl)c2)CC1`: the Ka in assay [2] is 1.98 10^5/M/s. Also, the “Dissociation rate constant (koff)” value in assay [3] is 1.06 10^-1/s. Also, the K in assay [4] is 5.35 10^-7M. The EC50 in assay [1] was 548 µM; in the assay with HCT-116, 142 µM; with NCM460, 521 µM.

As for `CCOc1cc(NC(=O)Nc2cc(Cl)nc(Cl)c2)cc(Cl)n1`, in assay [2], the Ka was 1.96 10^5/M/s. The “Dissociation rate constant (koff)” value in assay [3] is recorded as 1.02 10^-1/s. Further, in assay [4], the K was 5.2 10^-7M. The EC50 was found to be 8.15 µM in assay [1], 6.13 µM with HCT-116 and 25.3 µM in the assay with NCM460. In addition, the inhibition result in assay [5] was “Active”.

As to `O=C(Nc1ccnc(Cl)c1)Nc1cc(Cl)nc(Cl)c1`, the Ka in assay [2] was 3.65 10^4/M/s. The “Dissociation rate constant (koff)” value in assay [3] is on record as 2.01 10^-1/s. Moreover, the K in assay [4] is 5.5 10^-6M. The figures for the EC50 (in assay [1]; in the assay with HCT-116; in the assay with NCM460) were 31.2 µM, 16.1 µM and 55.3 µM, respectively.

With `COc1cc(NC(=O)Nc2cc(Cl)nc(Cl)c2)cc(Cl)n1`, the Ka in assay [2] was 3.21 10^5/M/s. For the same compound, the “Dissociation rate constant (koff)” value in assay [3] was 2.19 10^-1/s. For the same compound, the K in assay [4] was 6.82 10^-7M. The EC50 in assay [1] is 14.2 µM; in the assay on HCT-116 it was 11.2 µM; in the assay with NCM460, 33.2 µM. Also, the inhibition result in assay [5] was “Active”.

In the case of `Cc1cc(NC(=O)Nc2cc(Cl)nc(Cl)c2)n(C)n1`, the Ka in assay [2] was 5.36 10^4/M/s. Further, in assay [3], the “Dissociation rate constant (koff)” value is 1.77 10^-1/s. Also, the K in assay [4] was 3.3 10^-6M. In addition, the figures for the EC50 (in assay [1]; in the assay with HCT-116; in the assay on NCM460) were 67.2 µM, 94.2 µM and 134 µM, respectively.

In the case of `O=C(NNc1nc(N2CCOCC2)c2ccn(C3CC3)c2n1)Nc1cc(Cl)nc(Cl)c1`, the Ka in assay [2] was 6.12 10^4/M/s. In assay [3], the “Dissociation rate constant (koff)” value is on record as 1.33 10^-1/s. Further, the K in assay [4] is 2.17 10^-6M. In addition, the EC50 in assay [1] came to 436 µM; in the assay on HCT-116 it was 449 µM; in the assay with NCM460, 549 µM.

Consider `COc1c(Cl)cc(NC(=O)Nc2cc(Cl)nc(Cl)c2)cc1Cl`, for which the Ka in assay [2] was 6.24 10^6/M/s. For the same compound, in assay [3], the “Dissociation rate constant (koff)” value is 3.12 10^-1/s. For the same compound, the K in assay [4] is 5 10^-8M. In addition, the EC50 in assay [1] stood at 8.25 µM; in the assay with HCT-116, 41.5 µM; in the assay with NCM460, 27.3 µM. For the same compound, in assay [5], the inhibition entry is “Active”.

In the case of `COc1ccc(-c2ccc3cc(NC(=O)Nc4cc(Cl)nc(Cl)c4)nn3c2)cc1`, the Ka in assay [2] is 9.12 10^6/M/s. The “Dissociation rate constant (koff)” value in assay [3] is given as 1.12 10^-1/s. Besides, in assay [4], the K is 1.22 10^-8M. Further, the EC50 in assay [1] was 9.62 µM; with HCT-116 it was 5.35 µM; in the assay on NCM460, 8.35 µM. Also, the inhibition result in assay [5] is “Active”.

Regarding `O=C(Nc1cc(Cl)nc(Cl)c1)Nc1cc2ccc(Br)cn2n1`, the Ka in assay [2] is 8.31 10^7/M/s. Also, in assay [3], the Dissociation rate constant (koff) is 0.168 s⁻¹. The K in assay [4] was 2.02 10^-8M. Moreover, the EC50 is 11.7 µM in assay [1], 5.26 µM with HCT-116 and 8.94 µM in the assay with NCM460. In assay [5], the inhibition result was “Active”.

As for `O=C(NNc1nc(Nc2ccccc2)nc(N2CCCC2)n1)Nc1cc(Cl)nc(Cl)c1`, the Ka in assay [2] is 7.15 10^5/M/s. In addition, the “Dissociation rate constant (koff)” value in assay [3] is 1.33 10^-1/s. The K in assay [4] is 1.86 10^-7M. Also, the EC50 was 31.9 µM in assay [1], 23.2 µM in the assay on HCT-116 and 65.2 µM with NCM460.

Consider `CN(C)c1nc(NNC(=O)Nc2cc(Cl)nc(Cl)c2)nc2c1ccn2C`, for which the Ka in assay [2] was 7.55 10^4/M/s. Moreover, in assay [3], the “Dissociation rate constant (koff)” value is 1.02 10^-1/s. Further, the K in assay [4] is 1.85 10^-6M. In addition, the EC50 in assay [1] stood at 48.2 µM; with HCT-116, 41.5 µM; in the assay with NCM460, 58.5 µM.

`O=C(Nc1cc(Cl)nc(Cl)c1)Nc1cc(Cl)nc(OC2CCCC2)c1`: the Ka in assay [2] is 4.49 10^5/M/s. Further, the “Dissociation rate constant (koff)” value in assay [3] is 1.79 10^-1/s. For the same compound, the K in assay [4] was 3.99 10^-7M. For the same compound, the EC50 in assay [1] was 6.15 µM; in the assay on HCT-116, 5.12 µM; with NCM460 it was 21.4 µM. In assay [5], the inhibition result was “Active”.

In the case of `O=C(Nc1cc(Cl)cc(Cl)c1)Nc1cc(Cl)nc(Cl)c1`, the Ka in assay [2] is 3.26 10^4/M/s. Further, the “Dissociation rate constant (koff)” value in assay [3] was 1.16 10^-1/s. The K in assay [4] was 3.56 10^-6M. Moreover, the EC50 in assay [1] is 12.2 µM; in the assay on HCT-116, 11.4 µM; with NCM460, 55.4 µM. Moreover, the inhibition result in assay [5] was “Active”.

Consider `Cn1ccc2c(-c3ccccc3)nc(NNC(=O)Nc3cc(Cl)nc(Cl)c3)nc21`, for which the Ka in assay [2] is 5.21 10^4/M/s. For the same compound, the “Dissociation rate constant (koff)” value in assay [3] was 1.36 10^-1/s. Moreover, in assay [4], the K was 2.61 10^-6M. In addition, the concentration for a half-maximal effect (EC50) in assay [1] came to 528 µM; in the assay on HCT-116, 660 µM; in the assay on NCM460 it was 683 µM.

Consider `O=C(Nc1cc(Cl)nc(Cl)c1)Nc1cc2ccccn2n1`, for which, in assay [2], the Ka is 7.93 10^6/M/s. In assay [3], the “Dissociation rate constant (koff)” value is 1.16 10^-1/s. For the same compound, the K in assay [4] was 1.46 10^-8M. Also, the EC50 worked out at 2.49 µM in assay [1], 5.13 µM in the assay on HCT-116 and 10.2 µM with NCM460. In assay [5], the inhibition entry is “Active”.

Turning to `CNc1cc(C)nc(NNC(=O)Nc2cc(Cl)nc(Cl)c2)n1`, the Ka in assay [2] was 5.56 10^4/M/s. The “Dissociation rate constant (koff)” value in assay [3] is 2.36 10^-1/s. Besides, the K in assay [4] is 4.24 10^-6M. Further, the EC50 in assay [1] worked out at 122 µM; with HCT-116, 23.4 µM; in the assay with NCM460, 65.3 µM.

For `Cc1cc(NC(=O)Nc2cc(Cl)nc(Cl)c2)cc(C)n1`, the Ka in assay [2] is 5.69 10^6/M/s. In addition, in assay [3], the “Dissociation rate constant (koff)” value is 1.46 10^-1/s. Moreover, the K in assay [4] was 2.57 10^-8M. For the same compound, the results for the EC50 (in assay [1]; with HCT-116; in the assay on NCM460) were 234 µM, 86.2 µM and 576 µM, respectively.

Consider `CC(C)Oc1cc(NC(=O)Nc2cc(Cl)nc(Cl)c2)cc(Cl)n1`, for which, in assay [2], the Ka was 9.14 10^5/M/s. In assay [3], the “Dissociation rate constant (koff)” value is listed as 1.19 10^-1/s. In addition, the K in assay [4] is 1.3 10^-7M. Besides, the EC50 in assay [1] came to 5.17 µM; with HCT-116, 5.23 µM; with NCM460 it was 21.1 µM. Further, in assay [5], the inhibition result was “Active”.
